Tests used:
RORγ = target: T1, RORγ (UniProt P51449); type: cell-based; conditions: 293T cells, 16 h; for pIC50 (FF): firefly (FF) luciferase; for pIC50 (REN): renilla normalised (RENnorm) luciferase
T1 construct: hRORg-LBD|aa259-518|NP_005051.2; hRORgt|aa1-497|NP_001001523 (RORg, t isoform, 497aa); mRORg-LBD|aa264-516|NP_035411
T1 sequence (P51449 1-518): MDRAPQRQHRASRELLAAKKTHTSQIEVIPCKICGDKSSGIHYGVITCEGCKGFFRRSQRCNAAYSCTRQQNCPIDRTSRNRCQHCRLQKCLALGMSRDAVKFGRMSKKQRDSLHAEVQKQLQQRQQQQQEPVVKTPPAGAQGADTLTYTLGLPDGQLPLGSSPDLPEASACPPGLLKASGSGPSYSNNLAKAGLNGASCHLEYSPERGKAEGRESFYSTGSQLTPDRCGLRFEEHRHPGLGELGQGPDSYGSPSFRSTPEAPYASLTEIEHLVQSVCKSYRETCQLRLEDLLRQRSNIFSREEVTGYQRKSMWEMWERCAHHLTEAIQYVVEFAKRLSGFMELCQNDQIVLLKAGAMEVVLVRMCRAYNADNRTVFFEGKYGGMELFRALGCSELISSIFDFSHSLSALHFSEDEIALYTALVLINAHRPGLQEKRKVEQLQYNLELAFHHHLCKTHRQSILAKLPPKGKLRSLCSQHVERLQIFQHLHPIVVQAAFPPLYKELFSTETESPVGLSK
Method: Determination of a ligand mediated Gal4 promoter driven transactivation to quantify ligand binding to RORγ was performed as follows: DNA encoding three different RORγ. protein fragments was cloned into vector pCMV-BD (Stratagene). Expression was under control of a CMV promoter and as fusion to the DNA-binding domain of the yeast protein GAL4. Other vectors used were pFR-Luc (Stratagene) as regulated reporter plasmid. pFR-Luc contains a synthetic promoter with five tandem repeats of the yeast GAL4 binding sites that control expression of the Photinus pyralis (American firefly) luciferase gene. In order to improve experimental accuracy the plasmid pRL-CMV was cotransfected. pRL-CMV contains the constitutive CMV promoter, controlling the expression of the Renilla reniformis luciferase.
All Gal4 reporter gene assays were done in 293T cells (DSMZ (German Collection of Microorganisms and Cell Cultures), Braunschweig, Germany, ACC635) grown in Minimum Essential Medium (MEM) with Phenol Red. The medium is supplemented with 10% fetal bovine serum, 0.1 mM nonessential amino acids, 1 mM sodium pyruvate, 1% Glutamax and 100 units Penicilin/[…] per mL at 37° C. in 5% CO2.
For the assay, […] were plated per well in 96 well plates in 100 μL per well, incubated over night at 37° C. in 5% CO2. The following day, medium was discarded and the cells were transiently transfected using 20 μL per well of a OptiMEM—PEI-based transfection-reagent (Sigma-Aldrich, 408727) including the three plasmids described above. About 4 h after addition of the transfection solution, fresh Minimal Essential Medium (MEM, same composition as used for plating cells, but without serum) was added. Then compound stocks, prediluted in MEM (same composition as used for plating cells) were added (final vehicle concentration not exceeding 0.1%).
All experiments were done at least in triplicates.
It is understood that the data illustrated below may have reasonable variation depending on the specific conditions and procedures used by the person conducting the test.

[1] = target: T2, RORγ ligand binding domain (LBD) (Homo sapiens, UniProt P51449); assay: TR-FRET Activity Assay (ligand sensing assay, RORγ-LBD / coactivator peptide interaction); type: biochemical
T2 construct: made in house; host or cells: E. coli BL-21 (BL3), vector pDEST15
T2 sequence (P51449 269-508 limits assumed): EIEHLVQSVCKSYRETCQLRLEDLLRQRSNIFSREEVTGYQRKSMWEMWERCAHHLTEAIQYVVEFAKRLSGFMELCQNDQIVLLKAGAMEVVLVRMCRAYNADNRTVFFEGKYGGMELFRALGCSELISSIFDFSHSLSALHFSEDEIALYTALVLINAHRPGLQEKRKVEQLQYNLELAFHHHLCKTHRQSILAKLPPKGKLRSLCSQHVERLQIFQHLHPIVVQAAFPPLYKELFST
Description: This method measures the ability of putative ligands to modulate the interaction between the purified bacterial expressed RORγ ligand binding domain (LBD) and synthetic N-terminally biotinylated peptides which are derived from nuclear receptor coactivator proteins such as but not limited to SRC1 (NcoA1), SRC2 (NcoA2, TIF2), SRC3 (NcoA3), PGC1α, PGC1β, CBP, GRIP1, TRAP220, RIP140.
The ligand-binding domain (LBD) of RORγ was expressed as fusion protein with GST in […] cells using the vector pDEST15. Cells were lysed by lysozyme-treatment and sonication, and the fusion proteins purified over glutathione sepharose (Pharmacia) according to the manufacturers instructions. For screening of compounds for their influence on the RORγ-peptide interaction, the LANCE technology (Perkin Elmer) was applied. This method relies on the binding dependent energy transfer from a donor to an acceptor fluorophor attached to the binding partner of interest. For ease of handling and reduction of background from compound fluorescence LANCE technology makes use of generic fluorophore labels and time resolved detection assays were done in a final volume of 25 μL in a 384 well plate, in a Tris-based buffer system (20 mM Tris-HCl pH6.8; 60 mM KCl, 1 mM DTT; 5 mM MgCl2; 35 ng/μL BSA), containing 20-60 ng/well recombinantly expressed RORγ-LBD fused to GST, 200-600 nM N-terminally biotinylated peptide, 200 ng/well Streptavidin-xIAPC conjugate (Prozyme) and 6-10 ng/well Eu W1024-antiGST (Perkin Elmer). DMSO content of the samples was kept at 1%.
After generation of the Tris-based buffer system, the potentially RORγ modulating ligands were diluted. […] The LANCE signal was detected by a Perkin Elmer EnVision™ Multilabel Counter. The results were visualized by plotting the ratio between the emitted light at 665 nm and 615 nm. […] Ligands that promote the complex formation induce a concentration-dependent increase in time-resolved fluorescent signal.
To assess the antagonistic potential of the compounds, IC50 values were determined using a Ligand Sensing Assay based on Time-resolved Fluorescence Energy Transfer (TR-FRET) as described above. The normalised TR-FRET assay values, using the following equation: 1000*665 nm measurement value/615 nm measurement value, were transferred to the program GraphPad Prism to generate graphs and dose response curves using the following equation: […]
This is identical to the “four parameter logistic equation”. The IC50 values are calculated using this equation. […] Is is understood that the data illustrated below may have reasonable variation depending on the specific conditions and procedures used by the person conducting the test.

## Cn1c(C(=O)N[C@H]2C[C@H](C(=O)O)C2)cc(-c2cc(C(C)(C)C)cc(C3(C)CC3)c2)c1C(=O)C1CCCCC1 [Example 26, trans-3-(4-(3-(tert-Butyl)-5-(1-methylcyclopropyl)phenyl)-5-(cyclohexanecarbonyl)-1-methyl-1H-pyrrole-2-carboxamido)cyclobutanecarboxylic acid]
RORγ
  pIC50 (FF): 8.5
  pIC50 (REN): 8.5
[1]
  IC50: 0.501 µM

## Cc1c(C(=O)N[C@H]2C[C@H](C(=O)O)C2)cn(-c2cc(C(C)(C)C)cc(C3(C)CC3)c2)c1C(=O)N1CCCCC1 [Example 13/1]
RORγ
  pIC50 (FF): 6.7
  pIC50 (REN): 6.8
[1]
  IC50: 1 µM

## CCS(=O)(=O)c1cc(-c2cc(C(C)(C)C)cc(C(C)(C)C)c2)n(CC2CCCCC2)c1C [Example 325/1]
RORγ
  pIC50 (FF): 6.0
  pIC50 (REN): 6.3
[1]
  IC50: 0.251 µM

## COC(C)(C)c1cc(-n2nc(C(N)=O)c(Cl)c2CC2CCCCC2)cc(C(C)(C)C)c1 [Example 315/1]
RORγ
  pIC50 (FF): 6.0/6.0/6.0
  pIC50 (REN): 6.0/6.0/6.0
[1]
  IC50: 1 µM

## Cc1c(C(=O)NC2CCOCC2)cn(-c2ccc(S(=O)(=O)NC(C)(C)C)c(C(F)(F)F)c2)c1CC1CCCCC1 [4/3]
RORγ
  pIC50 (FF): 7.6
  pIC50 (REN): 7.6
[1]
  IC50: 0.398 µM

## Cc1c(C(=O)NC2CCOCC2)cc(-c2ccc(S(=O)(=O)NC(C)(C)C)c(C(F)(F)F)c2)n1CC(C)(C)C [302/2]
RORγ
  pIC50 (FF): 6.1
  pIC50 (REN): 6.1
[1]
  IC50: 5.01 µM

## Cc1cc(-n2nc(C(N)=O)cc2CC2CCCCC2)cc(C(C)(C)C)c1 [312/2]
RORγ
  pIC50 (FF): < 4.7
  pIC50 (REN): < 4.7
[1]
  IC50: 7.94 µM

## CCS(=O)(=O)c1ccc(CNC(=O)c2cc(-c3ccc(S(=O)(=O)NC(C)(C)C)c(C(F)(F)F)c3)n(CC3CCCCC3)c2C)cc1 [Example 302, 5-(4-(N-(tert-Butyl)sulfamoyl)-3-(trifluoromethyl)phenyl)-1-(cyclohexylmethyl)-N-(4-(ethylsulfonyl)benzyl)-2-methyl-1H-pyrrole-3-carboxamide]
RORγ
  pIC50 (FF): 7.6
  pIC50 (REN): 7.8
[1]
  IC50: 0.00631 µM

## Cc1c(C(=O)NC2CCOCC2)cc(-c2ccc(S(=O)(=O)NC(C)(C)C)c(C(F)(F)F)c2)n1CC1COC1 [302/3]
RORγ
  pIC50 (FF): 6.3
  pIC50 (REN): 6.2
[1]
  IC50: 15.8 µM

## Cc1c(C(=O)NCCC(C)(C)C(=O)O)c(C#N)n(-c2ccc(S(=O)(=O)NC(C)(C)C)c(C(F)(F)F)c2)c1CC1CCCCC1 [Example 10, 4-(1-(4-(N-(tert-Butyl)sulfamoyl)-3-(trifluoromethyl)phenyl)-2-cyano-5-(cyclohexylmethyl)-4-methyl-1H-pyrrole-3-carboxamido)-2,2-dimethylbutanoic acid]
RORγ
  pIC50 (FF): 6.9
  pIC50 (REN): 6.9
[1]
  IC50: 1.58 µM

## Cc1c(C(=O)NCCC(C)(C)C(=O)O)c(Cl)n(-c2ccc(S(=O)(=O)NC(C)(C)C)c(C(F)(F)F)c2)c1CC1CCCCC1 [Example 9, 4-(1-(4-(N-(tert-Butyl)sulfamoyl)-3-(trifluoromethyl)phenyl)-2-chloro-5-(cyclohexylmethyl)-4-methyl-1H-pyrrole-3-carboxamido)-2,2-dimethylbutanoic acid]
RORγ
  pIC50 (FF): 8.4
  pIC50 (REN): 8.4
[1]
  IC50: 0.794 µM

## Cn1c(C(=O)NC2CCOCC2)cc(-c2cc(C(C)(C)C)cc(C3(C)CC3)c2)c1CC1CCCCC1 [8/3]
RORγ
  pIC50 (FF): 7.1
  pIC50 (REN): 7.3
[1]
  IC50: 0.501 µM

## Cc1c(C(=O)NC2CCOCC2)cn(-c2cc(C(C)(C)C)cc(C3(C)CC3)c2)c1C(O)C1CCCCC1 (stereo not drawn) [Example 15, 1-(3-(tert-Butyl)-5-(1-methylcyclopropyl)phenyl)-5-(cyclohexyl(hydroxy)methyl)-4-methyl-N-(tetrahydro-2H-pyran-4-yl)-1H-pyrrole-3-carboxamide]
RORγ
  pIC50 (FF): 7.0
  pIC50 (REN): 7.0
[1]
  IC50: 0.631 µM

## COC(c1c(C)c(C(=O)NC2CCOCC2)cn1-c1cc(C(C)(C)C)cc(C2(C)CC2)c1)C1CCCCC1 (stereo not drawn) [Example 14, 1-(3-(tert-Butyl)-5-(1-methylcyclopropyl)phenyl)-5-(cyclohexyl(methoxy)methyl)-4-methyl-N-(tetrahydro-2H-pyran-4-yl)-1H-pyrrole-3-carboxamide]
RORγ
  pIC50 (FF): 6.1
  pIC50 (REN): 6.3
[1]
  IC50: 2 µM

## Cn1c(C(=O)NC23CCC(C(=O)O)(CC2)C3)cc(-c2cc(C(C)(C)C)cc(C3(C)CC3)c2)c1CC1CCCCC1 [8/12]
RORγ
  pIC50 (FF): 7.7
  pIC50 (REN): 7.8
[1]
  IC50: 1 µM

## CC(C)(C)NS(=O)(=O)c1ccc(-c2cc(C(=O)NC3CCS(=O)(=O)CC3)nn2CC2CCCCC2)c(Cl)c1Cl [Example 112/1]
RORγ
  pIC50 (FF): 7.5
  pIC50 (REN): 7.6
[1]
  IC50: 0.501 µM

## Cn1c(C(=O)N2CC(C(C)(C)C(=O)O)C2)cc(-c2cc(C(C)(C)C)cc(C3(C)CC3)c2)c1CC1CCCCC1 [8/15]
RORγ
  pIC50 (FF): 7.2
  pIC50 (REN): 7.4
[1]
  IC50: 2 µM

Reference: patent publication US9458104B2 (priority 2012, dated 2016)
